Laboratory results reported in patent US7964613B2 (Asahi Kasei Pharma Corporation, priority 2007, dated 2011).

Assays:
human ROCK1 = target: T1, human ROCK1 (Homo sapiens, UniProt Q13464); test: Measurement of Rho kinase inhibitory activity (ELISA of MBS phosphorylation); format: biochemical; settings: human ROCK1, MBS substrate, 100 μM ATP, 30° C. for 10 minutes
T1 construct: His tag (N); host or cells: insect cells (Sf9)
Description: In this test, human ROCK1 was used as Rho kinase, MBS (myosin binding subunit, subunit constituting myosin phosphatase) was used as the substrate of Rho kinase, and an anti-phosphorylated MBS antibody was used for detection of phosphorylation. The activity for inhibiting Rho kinase was determined by measuring phosphorylation of MBS by the Rho kinase by ELISA in the presence of an appropriately diluted test compound. As the Rho kinase used, a recombinant protein (N-terminal His-tagged recombinant human ROCK1 residues (1Met-[…])) was used, which was produced in insect cells (Sf9) using a sequence (1-727), of which activity was confirmed in the paper of Ishizaki et al. (Ishizaki, T. et al., FEBS Letters, 404, pp 118-124, 1997), based on the sequence of human ROCK1 (p 160 ROCK) described in the report of Ishizaki et al. (Ishizaki, T. et al., EMBO J., 15, pp 1885-1893, 1996). Further, as the MBS protein and anti-phosphorylated MBS antibody, those prepared according to the method described in the paper of Ito et al. (Ito, K et al., J. Physiol., 546, pp 823-836, 2003) were used.
A solution of MBS (Asahi Kasei Pharma, lot No, 040814n7-10) diluted with PBS to an appropriate concentration was added to an ELISA plate (Maxisorp, Nunc), and left, stand overnight at 4° C., and then the wells were washed twice with a washing solution (WB, washing buffer, 0.1% Tween 20/PBS). To the wells were added 1% bovine serum albumin (Sigma)/PBS, and left for 1 to 3 hours, and then the wells were washed 5 times with WB to prepare a substrate-immobilized plate. Onto this plate, a reaction mixture (5 mM MgSO4/0.1 M NaCl/20 mM HEPES (pH 7.5)/100 μM ATP/5 mM DTT), a test compound, and appropriately diluted human ROCK1 (Asahi Kasei Pharma, lot No, 030126.120-22) were added, and then reacted at 30° C. for 10 minutes. Then, 0.2 M EDTA (pH 7.5) was added to terminate the reaction, and the wells were washed 5 times with WB. A rabbit anti-phosphorylated MBS antibody solution (Asahi Kasei Pharma, lot No, 122676431) diluted 10,000 times with WB containing 1% bovine serum albumin was added to the wells, and after the reaction for 1 hour, the wells were washed 5 times with WB. Goat anti-rabbit IgG-HRP (Zymed) diluted 1,000 times with WB containing 1% bovine serum albumin was added to the wells as the secondary detection antibody and the mixture was reacted for 1 hour, and then the wells were washed 5 times with WB. An OPD (o-phenylenediamine) solution (1 mg/ml OPD, Sigma), 5.1 g/l of citric acid monohydrate, and 18.4 g/l of Na2HPO4.12H2O were added to the wells to develop color, […] was added 5 minutes later to terminate the color development, and absorbance was measured at 490 nm.
The inhibition ratio was calculated as follows. Inhibition ratio(%)=[…]
Further, the inhibition ratio was calculated with changing the concentration of the test compound, and a compound concentration providing an inhibition ratio of 50% was obtained as IC50.

[1] = tested on: rabbit normal intraocular pressure; test: Intraocular pressure reducing action; format: in vivo, Japanese white rabbit; settings: Oryctolagus cuniculus, topical, read-out: intraocular pressure reducing degree; for inhibition in vivo at 3000 µM: 3 mM aqueous solution, 50 μl to the left eye, max IOP reduction (2, 4, 6 hours) / value immediately before administration
In short: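 Japanese white rabbits (~2 kg) under topical anaesthesia received 50 μl of a 3 mM aqueous test solution in the left eye, right eye untreated. IOP read by tonometer before and at 2, 4, 6 h; maximal left–right difference divided by pre-dose IOP ×100 gives % reduction.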

TNF-α production = test: Inhibitory effect on TNF-α production in mice (LPS); format: in vivo, BALB/c mice; settings: Mus musculus, 1.5 h; oral administration of 30 mg/kg, LPS 5 μg i.p. 60 minutes later, plasma after 90 minutes; read-out: TNF-α production suppressing action
Description: BALB/c mice (Japan CRJ, famale) were used as experimental animals. Each test compound was dissolved in distilled water at a concentration suitable for the examination. The weight of each mouse was measured, a test compound solution was orally administered in a volume corresponding to 10 ml/kg, and only distilled water was administered to the control group. Each group consisted of five to seven animals. LPS was dissolved in physiological saline, and intraperitoneally administered to each mouse in an amount of 5 μg. The test compound was administered first, and LPS (lipopolysaccharide, Sigma) was administered 60 minutes later. After 90 minutes, blood was collected from the abdominal large vein in the presence of heparin, and plasma was obtained by centrifugation. TNF-α content in the plasma was measured by using the ELISA method.

T1 sequence (Q13464 1-727): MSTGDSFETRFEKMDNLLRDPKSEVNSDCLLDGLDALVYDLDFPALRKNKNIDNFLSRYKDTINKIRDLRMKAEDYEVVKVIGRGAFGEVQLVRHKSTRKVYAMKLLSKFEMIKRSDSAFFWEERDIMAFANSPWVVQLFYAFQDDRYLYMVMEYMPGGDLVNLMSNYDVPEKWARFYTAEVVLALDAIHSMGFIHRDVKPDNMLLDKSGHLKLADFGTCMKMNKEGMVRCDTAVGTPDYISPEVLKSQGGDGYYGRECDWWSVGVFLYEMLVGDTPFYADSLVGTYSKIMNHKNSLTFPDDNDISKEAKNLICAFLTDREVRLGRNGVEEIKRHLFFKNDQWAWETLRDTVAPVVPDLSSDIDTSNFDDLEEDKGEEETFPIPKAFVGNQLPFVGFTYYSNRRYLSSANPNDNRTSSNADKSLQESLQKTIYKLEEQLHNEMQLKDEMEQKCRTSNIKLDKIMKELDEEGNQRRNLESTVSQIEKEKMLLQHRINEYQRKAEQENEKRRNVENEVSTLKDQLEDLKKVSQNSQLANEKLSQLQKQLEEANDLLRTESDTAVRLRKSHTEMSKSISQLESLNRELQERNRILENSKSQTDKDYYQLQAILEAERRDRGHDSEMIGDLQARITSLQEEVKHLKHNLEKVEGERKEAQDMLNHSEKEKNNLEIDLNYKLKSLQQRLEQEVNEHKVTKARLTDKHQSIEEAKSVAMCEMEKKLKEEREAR

IC50 (human ROCK1) [nM]	Compound	inhibition in vivo at 3000 µM [1] [%]	inhibition in vivo at 30 mg/kg (TNF-α production) [%]	inhibition in vivo at 1000 µM ([1]; test compound of 1 mM, same test as Test Example 3) [%]
< 1000	Cc1ccc(CN[C@H]2CCN(S(=O)(=O)c3cccc4cncc(C)c34)C2)cc1 [Example 8-12]	≥ 20	≥ 50	
< 1000	O=S(=O)(c1cccc2cncc(Br)c12)N1CC[C@H](NCc2ccco2)C1 [Example 4-1, (S)-3-(2-Furylmethyl)amino-1-(4-bromo-5-isoquinolinesulfonyl)pyrrolidine]	≥ 20	≥ 30	
	CN[C@H]1CCN(S(=O)(=O)c2cccc3cncc(F)c23)C1 [Example 18-3, (S)-1-(4-Fluoro-5-isoquinolinesulfonyl)-3-(methylamino)pyrrolidine]	≥ 20	≥ 50	
< 1000	CN[C@H]1CCN(S(=O)(=O)c2cccc3cncc(Br)c23)C1 [Example 1-3, (S)-1-(4-Bromo-5-isoquinolinesulfonyl)-3-(methylamino)pyrrolidine]	≥ 20	≥ 50	≥ 20
1000 to 3000	O=S(=O)(c1cccc2cncc(Br)c12)N1CC[C@H](NC2CCOCC2)C1 [Example 1-30]	≥ 20	≥ 30	
	N[C@H]1CCCN(S(=O)(=O)c2cccc3cncc(Br)c23)C1 [Example 2-1, (S)-3-Amino-1-(4-bromo-5-isoquinolinesulfonyl)piperidine]		≥ 50	
< 1000	N[C@H]1CCN(S(=O)(=O)c2cccc3cncc(C4CC4)c23)C1 [Example 11-1, (S)-3-Amino-1-(4-cyclopropyl-5-isoquinolinesulfonyl)pyrrolidine]	5 to 10	≥ 30	
1000 to 3000	COCC(=O)N[C@H]1CCN(S(=O)(=O)c2cccc3cncc(Cl)c23)C1 [Example 56-1, (S)-3-(2-Methoxyacetyl)amino-1-(4-chloro-5-isoquinolinesulfonyl)pyrrolidine]	≥ 20	≥ 30	
	CN[C@H]1CCN(S(=O)(=O)c2cccc3c(O)ncc(F)c23)C1 [Example 37-1, (S)-1-(1-Hydroxy-4-fluoro-5-isoquinolinesulfonyl)-3-(methylamino)pyrrolidine]		≥ 30	
< 1000	Cc1ccc(CN[C@H]2CCN(S(=O)(=O)c3cccc4cncc(Br)c34)C2)cc1 [Example 1-12]		≥ 30	
< 1000	O=C(N[C@H]1CCN(S(=O)(=O)c2cccc3cncc(Cl)c23)C1)C1CNCCO1 (stereo partly drawn) [Example 102, N—[(S)-1-(4-chloro-5-isoquinolinesulfonyl)pyrrolidin-3-yl]morpholin-2-carboxamide]	≥ 20		
< 1000	CCN[C@H]1CCN(S(=O)(=O)c2cccc3cncc(C)c23)C1 [Example 8-4]	10 to 20		
1000 to 3000	NCC1CN(S(=O)(=O)c2cccc3cncc(Cl)c23)C1 [Example 60, 3-(Aminomethyl)-1-(4-chloro-5-isoquinolinesulfonyl)azetidine]	5 to 10		
1000 to 3000	CC(N)C1CCN(S(=O)(=O)c2cccc3cncc(Cl)c23)C1 (stereo not drawn) [Example 45, 3-(1-Aminoethyl)-1-(4-chloro-5-isoquinolinesulfonyl)pyrrolidine]	5 to 10		
< 1000	Cc1cncc2cccc(S(=O)(=O)N3CC[C@@H](N)C3)c12 [Example 8-2, (R)-3-Amino-1-(4-methyl-5-isoquinolinesulfonyl)pyrrolidine]	≥ 20		
< 1000	Cc1cncc2cccc(S(=O)(=O)N3CCC[C@H](N)C3)c12 [Example 22-1, (S)-3-Amino-1-(4-methyl-5-isoquinolinesulfonyl)piperidine]	10 to 20		
	COCC(=O)N[C@H]1CCN(S(=O)(=O)c2cccc3cncc(Br)c23)C1 [Example 71, (S)-3-(2-Methoxyacetyl)amino-1-(4-bromo-5-isoquinolinesulfonyl)pyrrolidine]	≥ 20	≥ 30	
